Reference: patent publication US20050070511A1, “2-methylene-19-nor-vitamin D2 compounds” (Wisconsin Alumni Research Foundation, priority 2003, published 2005)

Assays:
[1] = system: Male, weanling Sprague-Dawley rats; assay: Serum calcium (bone calcium mobilization) in vitamin D-deficient rats; assay type: in vivo, rat; conditions: for Serum Calcium (bone calcium mobilization): rats on low Ca diet, i.p. daily, average ± SE from 5 animals; for Mobilization of calcium from bone compared with 1α,25-dihydroxyvitamin D3: FIG. 4, in words
Protocol: (§1) Male, weanling Sprague-Dawley rats were placed on Diet 11 (0.47% Ca)+AEK for 11 days, followed by Diet 11 (0.02% Ca)+AEK for 31 days. Dosing (i.p.) began 7 days prior to sacrifice. Doses were given on a daily basis, 24 hours apart. The first 10 cm of the intestine was collected for gut transport studies and serum was collected for bone Ca mobilization analysis. The results are reported in TABLE 1 and illustrated in the graph of FIGS. 3 and 4.
The in vivo tests of serum calcium of rats on a zero calcium diet provides an insight into […] or bone activity of the 2-methylene-24(S) and 24(R) derivatives of 19-nor-1α,25-dihydroxyvitamin D2. […] At the same time, the activity of the 2-methylene-24(S) and 24(R) derivatives of 19-nor-1α,25-dihydroxyvitamin D2 on intestinal calcium transport is approximately equal to that of 1,25-(OH)2D3 (FIG. 3).

[2] = system: Male, weanling Sprague-Dawley rats; assay: Intestinal calcium transport in vitamin D-deficient rats; assay type: in vivo, rat; conditions: for Intestinal Calcium Transport (S/M): rats on low Ca diet, i.p. daily, average ± SE from 5 animals; for Activity in stimulating intestinal calcium transport compared with 1α,25-dihydroxyvitamin D3: FIG. 3, in words
Protocol: as §1

[3] = target: T1, vitamin D pig intestinal nuclear receptor (Sus scrofa, UniProt A3RGC1); assay: Competitive binding of [3H]-1α,25-(OH)2-D3 to the porcine intestinal vitamin D receptor; conditions: FIG. 1, in words
T1 construct: the vitamin D pig intestinal nuclear receptor; from tissue; host or cells: pig intestine (nuclear receptor preparation)
T1 sequence (A3RGC1 1-427): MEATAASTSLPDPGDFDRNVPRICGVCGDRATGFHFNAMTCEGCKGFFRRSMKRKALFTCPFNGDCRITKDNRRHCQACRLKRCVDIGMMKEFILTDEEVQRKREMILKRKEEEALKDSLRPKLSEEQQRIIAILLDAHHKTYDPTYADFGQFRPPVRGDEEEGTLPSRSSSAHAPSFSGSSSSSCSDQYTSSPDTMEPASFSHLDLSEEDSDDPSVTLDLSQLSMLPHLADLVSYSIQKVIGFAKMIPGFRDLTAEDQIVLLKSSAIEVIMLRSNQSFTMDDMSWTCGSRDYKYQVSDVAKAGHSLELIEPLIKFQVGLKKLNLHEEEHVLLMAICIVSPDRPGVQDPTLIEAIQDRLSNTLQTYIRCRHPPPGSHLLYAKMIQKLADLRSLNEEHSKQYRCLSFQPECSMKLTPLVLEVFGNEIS
Protocol: FIG. 1 is a graph illustrating the relative activity of 2-methylene-19-nor-24(S)-20(R)-1α,25-dihydroxyvitamin D2, 2-methylene-19-nor-24(R)-20(R)-1α,25-dihydroxyvitamin D2 and 1α,25-dihydroxyvitamin D3 to compete for binding of [^3H]-1α,25-(OH)2-D3 to the vitamin D pig intestinal nuclear receptor.
Competitive binding of the analogs to the porcine intestinal receptor was carried out by the method described by Dame et al. (Biochemistry 25, 4523-4534, 1986).

HL-60 cells = assay: Differentiation of HL-60 promyelocytes into monocytes; assay type: cell-based; conditions: FIG. 2, in words
Protocol: FIG. 2 is a graph illustrating the percent HL-60 cell differentiation as a function of the concentration of 2-methylene-19-nor-24(S)-20(R)-1α,25-dihydroxyvitamin D2, 2-methylene-19-nor-24(R)-20(R)-1α,25-dihydroxyvitamin D2, and 1α,25-dihydroxyvitamin D3.
The differentiation of HL-60 promyelocytic into monocytes was determined as described by Ostrem et al. (J. Biol. Chem. 262, 14164-14171, 1987).

C=C1/C(=C\C=C2/CCC[C@]3(C)[C@@H]([C@H](C)CCCC(C)(C)O)CC[C@@H]23)C[C@@H](O)C[C@@H]1O [1,25-(OH)2D3, 1α,25-dihydroxyvitamin D3, reference compound]
Serum Calcium (bone calcium mobilization) ([1]; 260 pmol/day/7 days): 5.72 ± 0.14 mg/100 mL
Intestinal Calcium Transport (S/M) ([2]; 260 pmol/day/7 days): 12.54 ± 1.83 S/M

C=C1[C@H](O)CC(=C/C=C2\CCC[C@@]3(C)C2CCC3[C@H](C)/C=C/[C@@H](C)C(C)(C)O)C[C@H]1O (stereo partly drawn) [(20R,24R)D2, (20R,24R)-1α,25-dihydroxy-2-methylene-19-nor-vitamin D2]
Mobilization of calcium from bone compared with 1α,25-dihydroxyvitamin D3 [1]: minimal activity on bone
Serum Calcium (bone calcium mobilization) ([1]; 130 pmol/day/7 days): 4.5 ± 0.05 mg/100 mL
Serum Calcium (bone calcium mobilization) ([1]; 260 pmol/day/7 days): 5.02 ± 0.14 mg/100 mL
Binding to the vitamin D receptor compared with 1,25(OH)2D3 [3]: more active than 1,25(OH)2D3
Activity in stimulating intestinal calcium transport compared with 1α,25-dihydroxyvitamin D3 [2]: activity about the same as that of 1α,25-dihydroxyvitamin D3
Intestinal Calcium Transport (S/M) ([2]; 130 pmol/day/7 days): 12.2 ± 1.22 S/M
Intestinal Calcium Transport (S/M) ([2]; 260 pmol/day/7 days): 11.58 ± 0.66 S/M
HL-60 differentiation potency compared with 1,25(OH)2D3 (HL-60 cells): significantly more potent than 1,25(OH)2D3

C=C1[C@H](O)CC(=C/C=C2\CCC[C@@]3(C)C2CCC3[C@H](C)/C=C/[C@H](C)C(C)(C)O)C[C@H]1O (stereo partly drawn) [(20R,24S)D2, (20R,24S)-1α,25-dihydroxy-2-methylene-19-nor-vitamin D2]
Mobilization of calcium from bone compared with 1α,25-dihydroxyvitamin D3 [1]: minimal activity on bone
Serum Calcium (bone calcium mobilization) ([1]; 130 pmol/day/7 days): 4.7 ± 0.13 mg/100 mL
Serum Calcium (bone calcium mobilization) ([1]; 260 pmol/day/7 days): 5.04 ± 0.14 mg/100 mL
Binding to the vitamin D receptor compared with 1,25(OH)2D3 [3]: more active than 1,25(OH)2D3
Activity in stimulating intestinal calcium transport compared with 1α,25-dihydroxyvitamin D3 [2]: activity about the same as that of 1α,25-dihydroxyvitamin D3
Intestinal Calcium Transport (S/M) ([2]; 130 pmol/day/7 days): 11.62 ± 0.69 S/M
Intestinal Calcium Transport (S/M) ([2]; 260 pmol/day/7 days): 11.14 ± 0.74 S/M
HL-60 differentiation potency compared with 1,25(OH)2D3 (HL-60 cells): significantly more potent than 1,25(OH)2D3
